Here are results for 17 compounds from patent US5273985A, “Glycerin derivative and its pharmacological use” (Eisai Co., Ltd., priority 1988, dated 1993).

Series [1] relates to blood pressure drop induced by PAF. Kind of series: Action on the blood pressure drop induced by PAF. It is filed as in vivo, F344 rats. To be noted: Rattus norvegicus, iv, 0.05 h, i.v., three minutes after 0.5 μg/kg PAF, ratio of blood pressure rise to drop, read-out: Recovery rate. The protocol:
Action on the Blood Pressure Drop Induced by […]
Cannulae were inserted into the carotid and the jugular of each of F344 rats anesthetized with Pento (50 mg/kg, i. p.). The blood pressure was determined at the carotid and 0.5 ml/kg of PAF or the test compound was given through the jugular. Three minutes after the injection of 0.5 μg/kg of PAF, the test compound was given and the antagonism thereof was evaluated.
The recovery rate shown in Table 4 is the ratio of the blood pressure rise by the test compound to the drop thereof.

Series [2] concerns platelet agglutination caused by PAF. Kind of series: Inhibition of platelet agglutination caused by human PAF (platelet-rich plasma, optical method of Born). The format is cell-based. To be noted: PAF at minimum concentration for maximum agglutination, read-out: Agglutination inhibiting activity IC50. The protocol:
Effect on the Agglutination Caused by Human PAF
One part by volume of a 3.8% sodium citrate solution was added to 9 parts by volume of blood sampled from the forearm of a healthy adult to whom had been administered no medicine for at least two weeks. A platelet-rich plasma (PRP) was prepared by centrifugation. The inhibition of the platelet agglutination was determined by an optical method of Born et al. with a Hematolaser II® (a platelet agglutination meter of Niko Bioscience Co.). PAF was dissolved in Tyrode solution [Ca^++ (+)] to form a solution having the minimum concentration for causing the maximum agglutination. The test compound was dissolved in a physiological saline.
The agglutination inhibiting activity of the test compound was determined from the rate of inhibition of the maximum light transmittance (maximum agglutination rate) caused by PAF in control PRP. IC50 was determined from the inhibition curve.
The numeral in the column of the Test compound in Table 1 refers to the Example number of the compound.

Series [3] addresses T1, Human PAF Receptor (Homo sapiens, UniProt P25105).
T1 construct: The platelets were sampled from healthy males by an ordinary method; endogenous in cells; host or cells: human platelets from healthy males (intact platelet suspension)
Kind of series: Human PAF receptor binding assay (3H-PAF, platelets). To be noted: 3H-PAF 0.6 to 1 nM, 37° C., read-out: PAF receptor antagonism IC50. The protocol:
Human PAF Receptor Binding Assay
The platelets were sampled from healthy males by an ordinary method and suspended in a binding buffer [10 mM phosphate-buffered saline (pH 7.0) containing 0.1 w/v % of BSA and 0.9 mM of CaCl2) to form a suspension having a concentration of 10^8 /460 μl. 20 μl of a solution of the test compound in the binding buffer was placed in a polypropylene tube and then 460 μl of the platelet suspension was added thereto. The mixture was subjected to a vortex treatment and then incubated at 37° C. for 6 min. 20 μl of a solution of ^3 H-PAF in the binding buffer (final ^3 H-PAF concentration: 0.6 to 1 nM) was added thereto and the mixture was incubated for 6 min. 3 ml of a washing solution (saline containing 0.1 w/v % of BSA) cooled with ice was added thereto to terminate the reaction. The reaction mixture was filtered by suction through a glass filter (Whatman GF/C). The glass filter was dried and the radioactivity thereof was determined with a liquid scintillation counter.
The inhibition % was calculated according to the following equation and IC50 so was determined by interpolation from the figure. [formula] wherein: total binding: dpm obtained when the concentration of the medicine or PAF is 0,
non-specific binding: dpm obtained when 10^-5 M of cold PAF was added.

The nature of series [4]: Determination of stability in aqueous solution. The format is physicochemical. To be noted: pH 7.4, 37° C., 0.5M sodium phosphate. The protocol:
Determination of Stability in Aqueous Solution
These compounds were unstable in a neutral or alkaline aqueous solution mainly due to the hydrolysis reaction of the N-acetyl or N-benzoyl group. The relationships between the pH and decomposition rate of several compounds were examined to find that they have the same pattern. The decomposition rate constant under conditions (pH 7.4, 37° C.) where they were relatively easily decomposed was determined and the stabilities of the compounds were compared with one another.
9 parts by volume of a buffer solution (0.5M sodium phosphate, pH 7.4) was added to 1 part by volume of an aqueous sample solution (1 mg/ml) and the mixture was kept at 37° C. The sampling was conducted at appropriate time intervals and the residual rate of an unreacted compound was determined by reversed phase high-performance liquid chromatography. Since the decomposition rate of most of the compounds can be approximately represented by the first-order decomposition rate equation, the decomposition rate constant was determined by the least squares method.

As a reminder, the IC50 is the midpoint of a concentration-inhibition curve.

T1 sequence (P25105 whole entry): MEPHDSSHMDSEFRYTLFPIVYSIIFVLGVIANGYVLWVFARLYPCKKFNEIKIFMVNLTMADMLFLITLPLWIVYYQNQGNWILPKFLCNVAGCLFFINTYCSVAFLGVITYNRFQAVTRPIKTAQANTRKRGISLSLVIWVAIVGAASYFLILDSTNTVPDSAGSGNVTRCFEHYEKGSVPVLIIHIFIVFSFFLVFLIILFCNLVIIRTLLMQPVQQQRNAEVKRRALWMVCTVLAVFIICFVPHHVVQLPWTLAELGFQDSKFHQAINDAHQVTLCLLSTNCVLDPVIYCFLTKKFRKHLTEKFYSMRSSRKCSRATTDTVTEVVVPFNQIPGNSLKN

With `CC[n+]1ccccc1CN(C(C)=O)C(=O)OCC(COC(=O)Nc1cc(OC)c(OC)c(OC)c1)OC` (centres unmarked) [Example 1, 1-Ethyl-2-[N-acetyl-N-{2-methoxy-3-(3,4,5-trimethoxy)phenylcarbamoyloxypropoxy}carbonyl]aminomethylpyridinium iodide], the inhibition in vivo at 1 mg/kg in series [1] is 21.7%. Further, the IC50 in series [2] worked out at 0.38 µM.

`CC[n+]1ccccc1CN(C(=O)OCC(COC(=O)Nc1ccc2c(c1)Cc1ccccc1-2)OC)C(=O)c1ccccc1OC` (centres unmarked) [Example 2, 1-Ethyl-2-[N-{3-(2-fluoreneamino)carbonyloxy-2-methoxypropyloxy}carbonyl-N-(2-methoxy)benzoyl]aminomethylpyridinium chloride]: in series [1], the inhibition in vivo at 0.01 mg/kg is 79.2% and the inhibition in vivo at 0.1 mg/kg is 97.4%. For the same compound, the IC50 in series [2] stood at 0.062 µM. For the same compound, in series [3], the IC50 turned out to be 0.0089 µM.

Take `CC[n+]1ccccc1CN(C(=O)OCC(COC(=O)NCC1CCCO1)OC)C(=O)c1ccccc1OC` (centres unmarked) [Example 3, 1-Ethyl-2-[N-(2-methoxy)benzoyl-N-{2-methoxy-3-(2-tetrahydrofuranyl)methyl}carbamoyloxypropoxycarbonyl]aminomethylpyridinium chloride]: the results for the IC50 in series [2] and in series [3] were 0.31 µM and 0.3 µM, respectively.

For `CCCCCCCCCCCCCCCCCCOCCCNC(=O)OCC(COC(=O)N(Cc1cccc[n+]1CC)C(=O)c1ccccc1OC)OC` (centres unmarked) [Example 4, 1-Ethyl-2-[N-(2-methoxy)benzoyl-N-{2-methoxy-3-(3-octadecyloxy)propylcarbamoyloxy}propoxycarbonyl]-aminomethylpyridinium chloride], the results for the IC50 in series [2] and in series [3] were 0.14 µM and 0.0035 µM, respectively.

As for `CC[n+]1ccccc1CN(C(=O)OCC(COC(=O)NCCCCCCCCCCNC(=O)N(C)C)OC)C(=O)c1ccccc1OC` (centres unmarked) [Example 5, 1-Ethyl-2-[N-{3-(10-N,N-dimethylcarbamylamino)decylcarbamoyloxy-2-methoxypropyloxy}carbonyl-N-(2-methoxy)benzoyl]aminomethylpyridinium chloride], the IC50 in series [2] was found to be 0.21 µM; in series [3], 0.0019 µM.

`CCOC(=O)C1CCC(CNC(=O)OCC(COC(=O)N(Cc2cccc[n+]2CC)C(=O)c2ccccc2OC)OC)CC1` (centres unmarked) [Example 7, 1-Ethyl-2-[N-{3-(4-ethoxycarbonyl)cyclohexylmethyl-carbamoyloxy-2-methoxy}propyloxycarbonyl-N-(2-methoxy)benzoyl]aminomethylpyridinium iodide]: the IC50 in series [2] was 2.6 µM.

For the compound `CC[n+]1ccccc1CN(C(=O)OCC(COC(=O)NCCc1ccc(S(N)(=O)=O)cc1)OC)C(=O)c1ccccc1OC` (centres unmarked) [Example 8, 1-Ethyl-2-[N-(2-methoxy)benzoyl-N-{2-methoxy-3-(2-(4-sulfamoylphenyl)ethylcarbamoyloxy)propyloxy}carbonyl]aminomethylpyridinium iodide], in series [1], the inhibition in vivo at 0.01 mg/kg worked out at 70.1%. Besides, in series [1], the inhibition in vivo at 0.1 mg/kg was 96.7%. Besides, the IC50 in series [2] came out at 0.11 µM; in series [3], 0.14 µM.

As to `CC[n+]1ccccc1CN(C(=O)OCC(COC(=O)NCCCC(=O)N1CCOCC1)OC)C(=O)c1ccccc1OC` (centres unmarked) [Example 9, 1-Ethyl-2-[N-(2-methoxy)benzoyl-N-{3-(3-morpholinocarbonylpropan-1-yl)carbamoyloxy-2-methoxypropyloxy}carbonyl]aminomethylpyridinium chloride], the results for the IC50 in series [2] and in series [3] were 0.26 µM and 0.79 µM, respectively.

Turning to `CCCCCOCCCCCOCCCCCNC(=O)OCC(COC(=O)N(Cc1cccc[n+]1CC)C(=O)c1ccccc1OC)OC` (centres unmarked) [Example 10, 1-Ethyl-2-[N-{3-(6,12-dioxaheptadecyl)carbamoyloxy-2-methoxypropyloxy}carbonyl-N-(2-methoxy)benzoyl]aminomethylpyridinium iodide], in series [1], the inhibition in vivo at 0.01 mg/kg amounted to 42.5%. Also, the inhibition in vivo at 0.1 mg/kg in series [1] came to 59.6%. Moreover, the values for the IC50 in series [2] and in series [3] were 0.3 µM and 0.016 µM, respectively.

As to `CCCCCCCCCCCCCCCCCC(=O)N1CCN(C(=O)OCC(COC(=O)N(Cc2cccc[n+]2CC)C(=O)c2ccccc2OC)OC)CC1` (centres unmarked) [Example 11, 1-Ethyl-2-[N-(2-methoxy)benzoyl-N-(2-methoxy-3-(4-stearoylpiperazinocarbonyl)oxypropyloxy}carbonyl]aminomethylpyridinium iodide], the IC50 stood at 0.086 µM in series [2] and 0.025 µM in series [3].

Consider `CC[n+]1ccccc1CN(C(=O)OCC(COC(=O)NCc1ccc(S(=O)(=O)NCC2CCCCC2)cc1)OC)C(=O)c1ccccc1OC` (centres unmarked) [Example 12, 1-Ethyl-2-[N-{3(4-cyclohexylmethylsulfamoyl)benzylcarbamoyloxy-2-methoxypromyloxy}carbonyl-N-(2-methoxy)benzoyl]aminomethylpyridinium chloride], for which the IC50 in series [2] was 0.031 µM.

Take `CC[n+]1ccccc1CN(C(C)=O)C(=O)OCC(COCCc1cc(OC)c(OC)c(OC)c1)OC` (centres unmarked) [Example 16]: the inhibition in vivo at 1 mg/kg in series [1] came out at 67.8%. In addition, the results for the IC50 in series [2] and in series [3] were 0.38 µM and 3.5 µM, respectively.

For `CC[n+]1ccccc1CN(C(C)=O)C(=O)OCC(COc1cc(OC)c(OC)c(OC)c1)OC` (centres unmarked) [Example 17, 1-ethyl-2-(((N-acetyl-N-((2-methoxy-3-(3,4,5-trimethoxy)phenoxypropyloxy))carbonyl))) aminomethyl pyridium iodide], in series [1], the inhibition in vivo at 1 mg/kg is 97.5%. In addition, the figures for the IC50 in series [2] and in series [3] were 0.34 µM and 3.5 µM, respectively.

For the compound `CC[n+]1ccccc1CN(C(=O)OCC(COCc1ccc(-c2ccccc2)cc1)OC)C(=O)c1ccccc1OC` (centres unmarked) [Example 19, 1-ethyl-2-(((N-((3-(4-biphenylmethyloxy-2-methoxypropyloxy))carbonyl-N-(2-methoxy)benzoyl)))aminomethylpyridinium chloride], the inhibition in vivo at 1 mg/kg in series [1] was 74.9%. Moreover, the IC50 worked out at 0.025 µM in series [2] and 0.0022 µM in series [3].

For `CC[n+]1ccccc1CN(C(=O)OCC(COCc1cc(OC)c(OCC2CCCCC2)c(OC)c1)OC)C(=O)c1ccccc1OC` (centres unmarked) [Example 20, 1-ethyl-2-(((N-((3-(4-cyclohexylmethoxy-3,5-dimethoxy)benzyloxy-2-methoxy))propyloxycarbonyl-N-(2-methoxy)benzoyl))) aminomethylpyridinium chloride], the inhibition in vivo at 1 mg/kg in series [1] amounted to 91.1%. Besides, the half-maximal inhibitory concentration (IC50) was determined as 0.25 µM in series [2] and 0.0091 µM in series [3].

Take `CC[n+]1ccccc1CN(C(=O)OCC(COCc1cc(OC)c(OC)c(OC)c1)OC)C(=O)N(C)C` (centres unmarked) [Example 22, 1-ethyl-2-(((N-(N,N-dimethyl)carbamyl-N-((2-methoxy-3-(3,4,5-trimethoxy)benzyloxypropyloxy))carbonyl))) aminomethylpyridinium iodide]: the “Half-value period of disappearance due to hydrolysis (t1/2)” value in series [4] is reported as “infinite”.

On to `CC[n+]1ccccc1CN1C(=O)CN(CC(COCc2cc(OC)c(OC)c(OC)c2)OC)C1=O` (centres unmarked) [Example 23], for which the IC50 in series [2] was found to be 0.7 µM. For the same compound, the half-life in series [4] (read-out: Half-value period of disappearance due to hydrolysis (t1/2) (converted)) was 15 days.
